# Assay results reported in ChEMBL document CHEMBL5236637, “Expanding the Chemical Space of Drug-like Passerini Compounds: Can α-Acyloxy Carboxamides Be Considered Hard Drugs?” (ACS Med Chem Lett, 2022).
# Tests used:
# Pseudomonas aeruginosa = test: Antibacterial activity against Pseudomonas aeruginosa ATCC 9027 assessed inhibition zone at 1 mg/ml preincubated at room temperature for 1 hr and measured after 24 hrs by agar well-diffusion method; type: functional; settings: time 25.0 hrs
# [1] = Hydrolytic stability in mouse liver microsomes assessed as esterase-mediated compound hydrolysis by measuring residual substrate activity incubated for 30 mins by LC-HRMS analysis; type: ADME, Microsome; settings: for Stability: microsomes, 0.5 h
Compound,Stability [1],further results
GENTAMICIN,,inhibition zone (IZ) (Pseudomonas aeruginosa): 22.3 mm
COC(=O)c1ccccc1 [METHYL BENZOATE],Unstable,
COC(=O)c1c(C)cccc1C,Stable,
CC(C)(C)NC(=O)COC(=O)c1ccccc1-c1ccccc1,,"remaining at 0.5 h ([1]; liver microsomes, read-out: Stability): 81%"
